Measured values published in patent US20060194819A1, “Activation specific inhibitors of nf-kb and method of treating inflammatory processes in cardio-vascular diseases” (PROCORDE GMBH, priority 2003, published 2006).

Legend:
[1] = test system: systemic TNF alpha release; experiment: LPS induced systemic inflammation in rats, serum TNF alpha by ELISA; type: in vivo; conditions: compound 1 μg/g IV pre-treatment, LPS 0.33 μg/g IV
Protocol: Systemic inflammatory response in rats was induced by lipopolysaccharide (LPS) shock (IV administration of LPS 0.33 μg/g). Inflammatory and inhibition of inflammation by IV administration of compound 56 (1 μg/g) to rats was determined by TNF alphaquantification in […] serum. TNF alpha was detected with an ELISA kit (Pierce) according to the manufacturer's instructions.

IKK-complex = target: T1, IKK-complex (Homo sapiens, UniProt O14920+O15111+Q9Y6K9); experiment: In vitro/cell free kinase assay: IKK-complex immunoprecipitated from TNF alpha stimulated HeLa cells, drugs added afterwards, alpha screen; type: biochemical
T1 construct: IKK-complex was immunoprecipitated with anti-NEMO-antibody; endogenous in cells; host or cells: HeLa
T1 sequence (O14920 whole entry): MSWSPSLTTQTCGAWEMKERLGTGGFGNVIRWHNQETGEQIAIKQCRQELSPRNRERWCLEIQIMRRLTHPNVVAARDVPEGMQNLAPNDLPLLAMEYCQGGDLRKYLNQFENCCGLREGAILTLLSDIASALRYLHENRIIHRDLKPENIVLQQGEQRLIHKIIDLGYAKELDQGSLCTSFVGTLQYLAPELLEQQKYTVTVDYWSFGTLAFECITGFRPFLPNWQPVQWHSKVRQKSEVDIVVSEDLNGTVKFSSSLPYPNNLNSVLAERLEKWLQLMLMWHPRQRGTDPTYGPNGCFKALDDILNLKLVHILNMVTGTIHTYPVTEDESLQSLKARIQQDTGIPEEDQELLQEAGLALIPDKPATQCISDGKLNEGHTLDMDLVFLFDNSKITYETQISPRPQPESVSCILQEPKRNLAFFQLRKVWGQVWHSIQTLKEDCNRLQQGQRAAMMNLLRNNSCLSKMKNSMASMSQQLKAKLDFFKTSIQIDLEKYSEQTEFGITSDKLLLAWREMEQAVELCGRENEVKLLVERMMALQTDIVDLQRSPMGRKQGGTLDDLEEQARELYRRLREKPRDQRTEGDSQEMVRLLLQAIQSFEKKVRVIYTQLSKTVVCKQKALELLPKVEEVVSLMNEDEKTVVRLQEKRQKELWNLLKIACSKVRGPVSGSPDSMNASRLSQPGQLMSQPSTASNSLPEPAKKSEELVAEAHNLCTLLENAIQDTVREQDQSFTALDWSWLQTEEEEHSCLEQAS
T1 sequence (O15111 whole entry): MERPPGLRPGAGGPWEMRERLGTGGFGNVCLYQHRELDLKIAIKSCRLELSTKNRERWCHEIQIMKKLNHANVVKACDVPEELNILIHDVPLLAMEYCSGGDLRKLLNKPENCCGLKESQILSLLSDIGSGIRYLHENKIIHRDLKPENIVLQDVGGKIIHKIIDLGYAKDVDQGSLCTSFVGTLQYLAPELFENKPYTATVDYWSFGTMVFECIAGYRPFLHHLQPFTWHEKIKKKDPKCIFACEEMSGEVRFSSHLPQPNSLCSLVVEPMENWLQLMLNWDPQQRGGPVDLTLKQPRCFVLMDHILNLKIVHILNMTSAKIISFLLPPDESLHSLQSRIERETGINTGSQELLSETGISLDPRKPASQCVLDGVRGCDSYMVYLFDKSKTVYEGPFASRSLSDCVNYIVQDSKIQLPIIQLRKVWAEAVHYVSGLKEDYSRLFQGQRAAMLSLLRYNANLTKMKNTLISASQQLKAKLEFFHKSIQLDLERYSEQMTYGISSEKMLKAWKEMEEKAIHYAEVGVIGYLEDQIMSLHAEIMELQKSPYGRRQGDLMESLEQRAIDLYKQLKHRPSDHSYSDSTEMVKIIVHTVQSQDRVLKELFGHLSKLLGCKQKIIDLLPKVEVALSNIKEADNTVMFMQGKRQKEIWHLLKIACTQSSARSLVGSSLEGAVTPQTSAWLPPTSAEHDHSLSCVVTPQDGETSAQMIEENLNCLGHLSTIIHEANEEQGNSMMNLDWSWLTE
T1 sequence (Q9Y6K9 whole entry): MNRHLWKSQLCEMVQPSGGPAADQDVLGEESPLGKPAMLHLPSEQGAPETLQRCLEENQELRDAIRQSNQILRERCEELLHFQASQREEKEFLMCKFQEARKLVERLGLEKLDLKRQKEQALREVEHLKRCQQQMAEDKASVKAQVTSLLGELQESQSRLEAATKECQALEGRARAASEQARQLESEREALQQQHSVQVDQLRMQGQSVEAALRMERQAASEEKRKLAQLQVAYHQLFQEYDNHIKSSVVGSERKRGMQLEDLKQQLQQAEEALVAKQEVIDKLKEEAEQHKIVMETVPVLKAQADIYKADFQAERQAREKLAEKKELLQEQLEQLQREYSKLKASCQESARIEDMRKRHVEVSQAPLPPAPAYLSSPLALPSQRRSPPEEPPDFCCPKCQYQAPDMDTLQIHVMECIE
Protocol: In vitro/cell free kinase assay protocol: HeLa cells were maintained in Dulbecco's modified Eagle's medium (Invitrogen) supplemented with 10% fetal bovine serum, 2 mM L-glutamine, penicillin (50 units/ml) and streptomycin (50 μg/ml). 24 h before treatment with TNF alpha HeLa cells were plated at a density of 1×10^7 per well in 175-mm cell culture dishes to 90% confluences.
The cells were stimulated with 20 ng/ml TNF alpha (Roche) without drugs. After 7 min the cells were washed twice with ice cold PBS followed by scraping and transferring into a 1.5 ml micro centrifuge tube. […] 6.6 μl of detection-buffer (20 mM Hepes pH 7.5, 100 mM NaCl, 1% Tween, 0.1 mM BSA, 50 μg/ml Protein A-Acceptor beads, 250 μg/ml Streptavidin-Donor beads (both Perkin-Elmer), 4 nM anti-phospho-IKBα-antibody (Santa Cruz Biotechnology) was dispensed to each well. After incubation for 1.5 h the plate was measured by alpha screen reader (Perkin Elmer).

IKKα/β binding to NEMO = target: T2, IKKα/β binding to NEMO (Homo sapiens, UniProt O14920+O15111+Q9Y6K9); experiment: Degradation of the immunoprecipitated IKK-complex after drug treatment in vitro, Western blot; type: biochemical; conditions: precipitated IKK-complex incubated 1 h with compound
T2 construct: endogenous in cells; host or cells: HeLa (immunoprecipitate with anti-NEMO antibody on Protein A-Sepharose)
T2 sequence (Q9Y6K9 whole entry): as above
T2 sequence (O15111 whole entry): as the sequence (O15111 whole entry) above
T2 sequence (O14920 whole entry): as the sequence (O14920 whole entry) above
Protocol: After immuno-precipitation with anti-NEMO antibody (Santa Cruz) as described earlier, the precipitated and washed IKK-complex was incubated with different concentrations of IKK inhibitors in 20 mM HEPES, pH 8.0, 10 mM MgCl2, 100 μM Na3VO4, 20 mM-glycerophosphate, 50 mM NaCl, 2 mM dithiothreitol, 0.5 μM phenylmethylsulfonyl fluoride, antipain, aprotinin, leupeptin 0.75 μg/ml each (Sigma). After 1 h treatment the probe was centrifuged at 16000 g for 1 min the supernatant was removed totally and the protein A pellet was resuspended in 1×Laemmli-buffer buffer (2% SDS, 2% 2-Mercaptoethanol, 0.01% Bromophenol blue, 8% Glycerine), heated by 60° C. for 10 min and loaded to a 4-20% polyacrylamid gels (BioRad). After electrophoresis the proteins were transferred to a nitrocellulose membrane using the wet blotting technique. First the membrane was blocked with Roti-Block (Roth) and afterwards incubated with monoclonal antibodies against IKKα (Santa Cruz Biotechnology, used at 1:200 dilution). This incubation was followed by the appropriate horseradish peroxidase-conjugated secondary antibody (Dianova) at 1:10000 dilution. Antibody binding was visualized on x-ray film using the Western blot Chemiluminescent Reagent Detection Kit (Santa Cruz). The x-ray film was scanned and the results were analysed by densitometry by the software AIDA.

[2] = Serum levels after single dose IV application in rats, mass spectroscopy; type: in vivo; conditions: 27.5 and 55 μg IV, 2 and 20 minutes
Protocol: COM 56 was diluted in saline-buffer to 100 μM and 200 μM in a volume of 200 μL. The probe was administered intravenously in rats. After 2 min and 20 min a blood probe was taken from the right carotid artery. The blood probes were centrifuged by 2500 g for 3 min and the supernatant, the serum component, were analysed by mass spectroscopy.

potency in the inhibition of IKK activity compared to COM 73 (IKK-complex; cell-free assay): significantly higher
inhibition of IKK activity in cell-free assay (IKK-complex; increasing concentrations on isolated IKK complex): dose-dependently inhibited
disruption of the IKK complex (NEMO binding to IKK-alpha/beta) in vitro (IKKα/β binding to NEMO): dose-dependently disrupted
serum levels after single IV application [2]: considerable serum levels
serum levels after single IV application ([2]; listed as compound 56): positive serum probes
SMILES: CCOC(=O)C1=C(C)N=c2s/c(=C/c3ccc(-c4cccc(C(=O)O)c4)o3)c(=O)n2C1c1ccc(Cl)cc1 (stereo not drawn) [COM 56, 2-[5-(3-Carboxyphenyl)-furan-2-ylmethylene]-5-(4-chlorophenyl)-7-methyl-3-oxo-2,3-dihydro-5H-thiazolo[3,2-a]pyrimidine-6-carboxylic acid ethyl ester]
TNF alpha concentrations in rat serum after LPS [1]: significantly inhibited
